In the assay the target is recombinant human GSK-3β (Homo sapiens, UniProt P49841). In words: Determination of Inhibition of GSK-3 Activity (phospho-glycogen synthase peptide-2, [γ-33P]ATP, scintillation counting). The class given is biochemical. Conditions: 20 μM ATP, 20 minutes at room temperature; read-out: GSK-3 inhibitor activity values (IC50 values). The protocol:
Determination of Inhibition of GSK-3 Activity
The reaction was initiated by adding 25 μL of phospho-glycogen synthase peptide-2 substrate solution [containing 6 μM phospho-glycogen synthase peptide-2, 20 μM ATP, 16 mM MOPS buffer (pH 7.0), 0.2 mM EDTA, 20 mM magnesium acetate, 0.1 μ Ci[γ-^33P]ATP (relative activity: approximately 110 TBq/mmol)] to 5 μL of each test compound using 5% dimethylsulfoxide as a solvent, and further adding 20 μL of GSK-3β enzyme solution [containing 10 mU recombinant human GSK-3β, 20 mM MOPS buffer (pH 7.0), 1 mM EDTA, 0.1% polyoxyethylene lauryl ether (23 Lauryl Ether; Brij 35), 5% glycerol, and 0.1% β-mercaptoethanol. After 20 minutes at room temperature, the reaction was terminated by the addition of the equivalent amount of 200 mM phosphoric acid solution. 90 μL of the reaction product was spotted onto a multiscreen PH plate (manufactured by Millipore) and washed with 100 mM phosphoric acid solution. The plate was dried, and 30 μL of MicroScint-O (manufactured by Packard BioScience) was added thereto. To evaluate inhibitory activity, cpm was counted using a scintillation counter. Here, Phospho GS Peptide 2 is an amino acid peptide having the following sequence: […]P)-Glu-Asp-Glu- Glu-Glu.
GSK-3 inhibitor activity values (IC50 values) of the compounds according to the present invention were measured by the method described above. As a result, inhibition activity of IC50<100 nM was confirmed in compounds of compound numbers 1, 35, 36, 37, 123, 157, 158, 160, 193, 234, and 263.

The record followed here is US20050153992A1, “Pyrrolopyrimidine thion derivatives” (TEIJIN PHARMA LIMITED, priority 2003, published 2005).

Structures are written as SMILES. Where only a bound is given, the exact number is not on record here.

recombinant human GSK-3β, sequence (P49841 whole entry): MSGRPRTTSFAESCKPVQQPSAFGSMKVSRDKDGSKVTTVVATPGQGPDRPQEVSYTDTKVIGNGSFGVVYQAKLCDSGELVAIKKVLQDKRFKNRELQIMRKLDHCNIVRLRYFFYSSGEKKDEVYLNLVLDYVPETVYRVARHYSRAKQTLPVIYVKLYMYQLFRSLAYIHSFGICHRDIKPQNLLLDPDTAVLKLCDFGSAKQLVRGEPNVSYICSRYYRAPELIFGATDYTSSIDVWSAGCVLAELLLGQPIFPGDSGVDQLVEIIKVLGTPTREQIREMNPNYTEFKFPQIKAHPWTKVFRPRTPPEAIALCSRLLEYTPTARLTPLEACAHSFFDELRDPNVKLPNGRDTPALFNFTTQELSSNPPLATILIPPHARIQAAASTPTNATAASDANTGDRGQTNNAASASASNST

Turning to `O=C(NCCn1c(-c2sccc2Cl)c(I)c2nc[nH]c(=S)c21)c1ccc(F)cc1` [Compound 1, N-{2-[6-(3-chloro(2-thienyl))-7-iodo-4-thioxo(3-hydropyrrolo[3,2-d]pyrimidin-5-yl)]ethyl}(4-fluorophenyl)carboxyamide], the IC50 (as a rule, the concentration that inhibits the measured activity by half) is less than 100 nM.

As for `S=c1[nH]cnc2c(I)c(-c3sccc3Cl)n(CCNc3ncnc4ccccc34)c12` [Compound 37, 6-(3-chloro(2-thienyl))-7-iodo-5-[2-(quinazolin-4-ylamino)ethyl]-3-hydropyrrolo[3,2-d]pyrimidin-4-thione], the IC50 was less than 100 nM.

`O=C(NCCn1c(-c2sccc2Cl)c(-c2cccnc2)c2nc[nH]c(=S)c21)C(F)(F)F` [Compound 123]: the IC50 is less than 100 nM.

Take `O=C(NCCn1c(-c2sccc2Cl)c(Cl)c2nc[nH]c(=S)c21)c1ccc(F)cc1` [Compound 157]: the IC50 is less than 100 nM.

Take `O=C(NCCn1c(-c2sccc2Cl)c(Br)c2nc[nH]c(=S)c21)c1ccc(F)cc1` [Compound 158]: the IC50 is less than 100 nM.

As to `Nc1c(-c2sccc2Cl)n(CCNC(=O)c2ccc(F)cc2)c2c(=S)[nH]cnc12` [Compound 160, N-{2-[7-amino-6-(3-chloro(2-thienyl))-4-thioxo(3-hydropyrrolo[3,2-d]pyrimidin-5-yl)]ethyl}(4-fluorophenyl)carboxyamide], the IC50 is less than 100 nM.

As for `O=C(NCCn1c(-c2sccc2Cl)c(NC(=O)c2ccccc2)c2nc[nH]c(=S)c21)c1ccc(F)cc1` [Compound 193, N-{2-[6-(3-chloro(2-thienyl))-7-(phenylcarbonylamino)-4-thioxo(3-hydropyrrolo[3,2-d]pyrimidin-5-yl)]ethyl}(4-fluorophenyl)carboxyamide], the IC50 was less than 100 nM.

On to `CCn1nc(C)cc1C(=O)NCCn1c(-c2sccc2Cl)c(I)c2nc[nH]c(=S)c21` [Compound 234, N-{2-[6-(3-chloro(2-thienyl))-7-iodo-4-thioxo(3-hydropyrrolo[3,2-d]pyrimidin-5-yl)]ethyl}(1-ethyl-3-methylpyrazol-5-yl)carboxyamide], for which the IC50 is less than 100 nM.
